Test results: ChEMBL document CHEMBL4837181 (Eur J Med Chem, 2020); call rule not given here

Experiments:
[1] = Half life in male cynomolgus monkey at 75 mg/kg, po measured on day 1; type: ADME, organism-based, Macaca fascicularis; conditions: in vivo
[2] = Apparent oral clearance in male cynomolgus monkey at 150 mg/kg, po BID measured on day 8; type: ADME, organism-based, Macaca fascicularis; conditions: in vivo
[3] = AUC (0 to 12 hrs) in human up to 1200 mg administered bid; type: ADME; parameters: time < 12 hr, dose <=1200
[4] = AUC (0 to 24 hrs) at steady state in mouse at 62 mg/kg administered bid; type: ADME, organism-based; parameters: time < 24 hr, dose 62 mg/kg; conditions: in vivo
[5] = AUC (0 to infinity) in human up to 1200 mg administered bid; type: ADME; parameters: time infinity, dose <=1200
[6] = Apparent oral clearance in male cynomolgus monkey at 225 mg/kg, po measured on day 1; type: ADME, organism-based, Macaca fascicularis; conditions: in vivo
[7] = AUC (0 to 24 hrs) in male cynomolgus monkey at 75 mg/kg, po measured on day 1; type: ADME, organism-based, Macaca fascicularis; parameters: time < 24 hr, route oral, dose 75 mg/kg; conditions: in vivo
[8] = Cmax in mouse at 62 mg/kg administered bid; type: ADME, organism-based; parameters: dose 62 mg/kg; conditions: in vivo
[9] = Half life in female cynomolgus monkey at 375 mg/kg, po BID measured on day 8; type: ADME, organism-based, Macaca fascicularis; conditions: in vivo
[10] = Tmax in female cynomolgus monkey at 225 mg/kg, po measured on day 1; type: ADME, organism-based, Macaca fascicularis; conditions: in vivo
[11] = AUC (0 to infinity) in human at 2400 mg administered bid; type: ADME; parameters: time infinity, dose 2400 mg; conditions: in vivo
[12] = Clearance in female cynomolgus monkey at 15 mg/kg, iv measured on day 1; type: ADME, organism-based, Macaca fascicularis; conditions: in vivo, time 1 day
[13] = Half life in rat at 20 to 900 mg/kg, po; type: ADME, organism-based; conditions: in vivo, dose 20-900 mg/kg
[14] = Solubility of compound at pH 1; type: physicochemical; conditions: buffer
[15] = AUC (0 to 24 hrs) at steady state in […] at 1200 mg, BID; type: ADME; parameters: time < 24 hr, dose 1200 mg; conditions: in vivo
[16] = Half life in female cynomolgus monkey at 75 mg/kg, po measured on day 1; type: ADME, organism-based, Macaca fascicularis; conditions: in vivo
[17] = biological target: T1, Cytochrome P450 1A2 (Homo sapiens, UniProt P05177); experiment: Inhibition of CYP1A2 in human hepatocytes; type: ADME, cell-based, Hepatocyte
T1 sequence (P05177 whole entry): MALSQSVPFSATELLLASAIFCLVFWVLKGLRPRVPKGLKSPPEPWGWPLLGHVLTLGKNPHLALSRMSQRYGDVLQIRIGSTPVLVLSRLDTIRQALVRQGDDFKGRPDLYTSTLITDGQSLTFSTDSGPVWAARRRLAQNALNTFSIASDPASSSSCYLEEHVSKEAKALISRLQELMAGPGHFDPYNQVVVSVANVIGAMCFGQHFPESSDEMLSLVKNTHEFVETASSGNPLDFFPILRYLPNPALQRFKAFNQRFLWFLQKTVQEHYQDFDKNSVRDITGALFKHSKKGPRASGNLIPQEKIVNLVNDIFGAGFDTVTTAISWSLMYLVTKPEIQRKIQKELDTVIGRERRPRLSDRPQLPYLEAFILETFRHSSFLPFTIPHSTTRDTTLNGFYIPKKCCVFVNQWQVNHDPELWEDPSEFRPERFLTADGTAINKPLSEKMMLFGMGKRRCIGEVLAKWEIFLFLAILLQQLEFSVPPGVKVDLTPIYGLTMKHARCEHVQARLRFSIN

[18] = Tmax in female cynomolgus monkey at 150 mg/kg, po BID measured on day 8; type: ADME, organism-based, Macaca fascicularis; conditions: in vivo
[19] = Genotoxicity in monkey; type: toxicity, Macaca mulatta; conditions: rhesus monkey
[20] = Stability in rat plasma assessed as parent compound remaining measured after 2 hrs by LC-MS/MS analysis; type: ADME, cell-free; conditions: read-out: Stabilty
[21] = Cmax in po BID dosed rat measured on day 28; type: ADME, organism-based; parameters: route oral, dose 180 mg/kg; conditions: in vivo, 180 mg/kg
[22] = Toxicity in monkey assessed as change in respiratory parameter; parameters: species or system Macaca mulatta; conditions: rhesus monkey, in vivo
[23] = Drug metabolism in CD1 mouse hepatocytes assessed as unmetabolized compound at 10 uM incubated for 120 mins by UPLC-QTOF-PDA analysis; type: ADME, cell-based, Hepatocyte; conditions: read-out: Drug metabolism
[24] = Drug metabolism in cynomolgus monkey hepatocytes assessed as unmetabolized compound at 10 uM incubated for 120 mins by UPLC-QTOF-PDA analysis; type: ADME, cell-based, Macaca fascicularis, Hepatocyte; conditions: read-out: Drug metabolism
[25] = AUC (0 to 12 hrs) in rat po BID measured on day 28; type: ADME, organism-based; parameters: time < 12 hr, route oral; conditions: in vivo
[26] = Cmax in female rat at 180 mg/kg, po BID measured on day 28; type: ADME, organism-based; parameters: route oral, dose 180 mg/kg; conditions: in vivo
[27] = biological target: Cytochrome P450 2C19 (Homo sapiens, UniProt P33261); experiment: Inhibition of CYP2C19 in human hepatocytes; type: ADME, cell-based, Hepatocyte
[28] = Chemical stability of compound in 0.1 N aqueous HCl buffer assessed as compound remaining at pH 1 at 5 uM measured after 1.5 hrs by LC-MS/MS analysis; type: physicochemical; conditions: pH 1, 1.5 h
[29] = biological target: Cytochrome P450 3A4 (Homo sapiens, UniProt P08684); experiment: Induction of CYP3A4 in human hepatocytes; type: ADME, cell-based, Hepatocyte
[30] = Drug metabolism in cynomolgus monkey assessed as formation of M9 metabolite at 75 to 375 mg/kg, po BID; type: ADME, organism-based, Macaca fascicularis; conditions: in vivo, dose 75-375 mg/kg
[31] = AUC (0 to 12 hrs) in female rat at 180 mg/kg, po BID measured on day 28; type: ADME, organism-based; parameters: time < 12 hr, route oral, dose 180 mg/kg; conditions: in vivo
[32] = AUC (0 to 12 hrs) in male rat at 150 mg/kg, po BID measured on day 28; type: ADME, organism-based; parameters: time < 12 hr, route oral, dose 150 mg/kg; conditions: in vivo
[33] = biological target: T2, Cytochrome P450 2B6 (Homo sapiens, UniProt P20813); experiment: Inhibition of CYP2B6 in human hepatocytes; type: ADME, cell-based, Hepatocyte
T2 sequence (P20813 whole entry): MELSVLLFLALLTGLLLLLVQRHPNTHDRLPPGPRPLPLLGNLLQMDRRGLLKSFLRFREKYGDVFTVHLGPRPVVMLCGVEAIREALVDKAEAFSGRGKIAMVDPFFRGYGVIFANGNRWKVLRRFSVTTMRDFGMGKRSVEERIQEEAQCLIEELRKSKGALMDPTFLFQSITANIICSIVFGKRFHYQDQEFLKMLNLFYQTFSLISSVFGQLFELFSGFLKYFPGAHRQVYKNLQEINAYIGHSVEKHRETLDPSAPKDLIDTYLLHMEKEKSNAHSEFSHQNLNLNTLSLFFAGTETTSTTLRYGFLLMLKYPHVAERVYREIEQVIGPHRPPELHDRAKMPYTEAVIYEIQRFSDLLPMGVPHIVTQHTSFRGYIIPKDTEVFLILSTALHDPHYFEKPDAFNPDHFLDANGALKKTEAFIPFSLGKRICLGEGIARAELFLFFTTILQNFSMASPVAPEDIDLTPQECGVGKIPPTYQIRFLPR

[34] = Drug metabolism in Sprague-Dawley rat hepatocytes assessed as unmetabolized compound at 10 uM incubated for 120 mins by UPLC-QTOF-PDA analysis; type: ADME, cell-based, Hepatocyte; conditions: read-out: Drug metabolism
[35] = Drug metabolism in mouse assessed as indoximod formation by measuring indoximod Tmax at 20 to 900 mg/kg; type: ADME, organism-based; conditions: in vivo, dose 20-900 mg/kg
[36] = Genotoxicity in rat; type: toxicity
[37] = AUC (0 to 24 hrs) in male cynomolgus monkey at 15 mg/kg, iv measured on day 1; type: ADME, organism-based, Macaca fascicularis; parameters: time < 24 hr, route intravenous, dose 15 mg/kg; conditions: in vivo
[38] = Chemical stability of compound in simulated gastric fluid assessed as compound remaining at 5 uM measured after 1.5 hrs by LC-MS/MS analysis; type: ADME, physicochemical; conditions: read-out: Stabilty

Sequence of Cytochrome P450 2C19 (P33261 whole entry): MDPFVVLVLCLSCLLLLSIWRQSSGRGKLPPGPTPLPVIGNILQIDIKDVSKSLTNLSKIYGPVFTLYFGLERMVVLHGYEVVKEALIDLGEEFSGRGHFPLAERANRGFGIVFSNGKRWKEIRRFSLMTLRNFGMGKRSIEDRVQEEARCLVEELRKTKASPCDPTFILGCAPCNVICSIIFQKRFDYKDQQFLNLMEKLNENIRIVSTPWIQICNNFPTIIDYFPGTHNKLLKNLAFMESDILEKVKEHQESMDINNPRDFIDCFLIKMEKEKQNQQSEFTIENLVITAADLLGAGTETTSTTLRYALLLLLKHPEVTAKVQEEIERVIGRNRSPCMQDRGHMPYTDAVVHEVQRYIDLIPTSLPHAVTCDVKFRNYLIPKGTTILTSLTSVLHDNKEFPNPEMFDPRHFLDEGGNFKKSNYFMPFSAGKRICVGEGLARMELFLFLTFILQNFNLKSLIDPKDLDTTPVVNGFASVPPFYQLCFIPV
Sequence of Cytochrome P450 3A4 (P08684 whole entry): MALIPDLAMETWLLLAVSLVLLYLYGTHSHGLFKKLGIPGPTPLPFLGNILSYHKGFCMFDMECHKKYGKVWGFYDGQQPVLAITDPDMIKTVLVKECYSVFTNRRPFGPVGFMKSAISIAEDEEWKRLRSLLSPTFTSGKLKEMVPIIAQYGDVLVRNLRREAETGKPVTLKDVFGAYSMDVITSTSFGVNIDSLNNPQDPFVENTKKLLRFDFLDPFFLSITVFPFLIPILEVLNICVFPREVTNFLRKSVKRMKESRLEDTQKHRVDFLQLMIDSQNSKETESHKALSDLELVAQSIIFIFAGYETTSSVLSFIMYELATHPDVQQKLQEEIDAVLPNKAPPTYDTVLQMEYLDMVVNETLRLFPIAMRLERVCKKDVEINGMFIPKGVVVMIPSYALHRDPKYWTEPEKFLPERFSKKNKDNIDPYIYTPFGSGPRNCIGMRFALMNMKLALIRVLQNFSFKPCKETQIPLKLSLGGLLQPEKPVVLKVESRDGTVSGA

For Cn1cc(C[C@@H](N)C(=O)O)c2ccccc21 [INDOXIMOD], which half-life [1] is on record?
The half-life was 2.7 h.

And the CL/F [2]?
Its CL/F is 13.8 mL/min/kg.

And the AUC at 12 h [3]?
The AUC at 12 h was 83 µM·h.

And the AUC at 24 h [4]?
Its AUC at 24 h is over 170 µM·h.

What about the AUC(0-inf) [5] of the same compound?
Its AUC(0-inf) is 114 µM·h.

And the CL/F [6]?
Its CL/F is 22.1 mL/min/kg.

And the AUC(0-t) at 24 h [7]?
The AUC(0-t) at 24 h was 223 µM·h.

What about the Cmax [8] of the same compound?
Its Cmax is over 16 µM.

And the half-life [9]?
Its half-life is 3.8 h.

What about the Tmax [10] of the same compound?
The Tmax was 1 h.

What about the AUC(0-inf) [11] of the same compound?
The AUC(0-inf) was 170 µM·h.

What about the clearance [12] of the same compound?
Its clearance is 10.2 mL/min/kg.

What about the half-life [13] of the same compound?
Its half-life is 23 h.

And the solubility [14]?
Its solubility is over 20 mg/mL.

What about the AUC at 24 h [15] of the same compound?
Its AUC at 24 h is 240 µM·h.

And the half-life [16]?
The half-life was 1.8 h.

Which IC50 [17] does the source give for CCOC(=O)[C@@H](Cc1cn(C)c2ccccc12)NC(=O)[C@@H](N)CC(C)C.Cl here?
Its IC50 is over 50 µM.

And the Tmax [18]?
Its Tmax is 1 h.

What about the Activity [19] of the same compound?
The Activity was “Non-Toxic”.

What about the remaining at 2 h [20] of the same compound?
Its remaining at 2 h is 0%.

And the Cmax [21]?
The Cmax was 110 µM.

What about the Activity [22] of the same compound?
Its Activity is “Non-Toxic”.

And the remaining at 2 h, 10 µM [23]?
Its remaining at 2 h, 10 µM is 0.3%.

What about the remaining at 2 h, 10 µM [24] of the same compound?
Its remaining at 2 h, 10 µM is 1.3%.

And the AUC at 12 h [25]?
Its AUC at 12 h is 953 µM·h.

And the Cmax [26]?
Its Cmax is 170 µM.

And the IC50 [27]?
The IC50 was 47 µM.

And the Stabilty [28]?
The Stabilty was 90%.

And the Activity [29]?
Its Activity is “Not Active”.

And the Drug metabolism [30]?
Its Drug metabolism is “Metabolite_Detected”.

And the AUC at 12 h [31]?
The AUC at 12 h was 1380 µM·h.

What about the AUC at 12 h [32] of the same compound?
The AUC at 12 h was 1410 µM·h.

And the IC50 [33]?
Its IC50 is over 50 µM.

What about the remaining at 2 h, 10 µM [34] of the same compound?
The remaining at 2 h, 10 µM was 0.4%.

What about the Tmax [35] of the same compound?
Its Tmax is 1 h.

What about the Activity [36] of the same compound?
The Activity was “Non-Toxic”.

And the AUC [37]?
The AUC was 0.309 µM·h.

And the remaining at 1.5 h, 5 µM [38]?
Its remaining at 1.5 h, 5 µM is 92%.
